Each molecule was assayed against T1, human vasopressin V1b receptor (Homo sapiens, UniProt P47901) (assay: Vasopressin V1b receptor binding test). Details: membranes of CHO-K1 cells with human V1b receptor, displacement of 1.5 nM 3H-AVP; for compounds with more than one stereogenic center the diastereomer with greater affinity.
T1 construct: expressed in transfected cells; host or cells: CHO-K1 (cell line hV1b_3H2_CHO), membrane preparation
T1 sequence (P47901 1-424): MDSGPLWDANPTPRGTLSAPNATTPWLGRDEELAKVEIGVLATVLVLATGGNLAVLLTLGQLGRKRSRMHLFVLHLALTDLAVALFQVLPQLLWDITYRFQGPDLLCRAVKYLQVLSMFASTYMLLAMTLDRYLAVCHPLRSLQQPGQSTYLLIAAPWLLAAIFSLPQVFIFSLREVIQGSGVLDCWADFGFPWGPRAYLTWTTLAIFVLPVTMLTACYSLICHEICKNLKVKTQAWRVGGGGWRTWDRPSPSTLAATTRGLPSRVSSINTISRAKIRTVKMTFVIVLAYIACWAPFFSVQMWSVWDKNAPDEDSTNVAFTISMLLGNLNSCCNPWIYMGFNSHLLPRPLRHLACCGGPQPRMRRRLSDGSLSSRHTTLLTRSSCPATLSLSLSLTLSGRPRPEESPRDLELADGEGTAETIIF
Summary of the method: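 Affinity constants (Ki) came from nonlinear regression of triplicate scintillation counts after filtration separated bound from free radioligand. Compounds competed at human V1b membranes for 60 min, room temperature, in pH 7.4 tris/MgCl2/BSA buffer with 2% DMSO; 1 μM AVP defined nonspecific binding.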
CCN(C)Cc1ccc(C2(N3C[C@H](O)C[C@H]3c3ncco3)C(=O)N(S(=O)(=O)c3ccc(OC)cc3)c3ccc(Cl)cc32)c(OC)c1 (stereo partly drawn) [Example 170, 5-Chloro-3-{4-[(ethylmethylamino)methyl]-2-methoxyphenyl}-3-((2S,4R)-4-hydroxy-2-oxazol-2-yl-pyrrolidin-1-yl)-1-(4-methoxybenzenesulfonyl)-1,3-dihydroindol-2-one] was tested, and the Ki was < 10 nM. For COc1ccc(CN2CCN(C)CC2)cc1C1(N2CCC[C@H]2c2ncco2)C(=O)N(S(=O)(=O)c2cccs2)c2ccc(Cl)cc21 (stereo partly drawn) [Example 171, 5-Chloro-3-[2-methoxy-5-(4-methylpiperazin-1-ylmethyl)phenyl]-3-((S)-2-oxazol-2-yl-pyrrolidin-1-yl)-1-(thiophene-2-sulfonyl)-1,3-dihydroindol-2-one], the Ki was 10 to 100 nM. COc1ccc(S(=O)(=O)N2C(=O)C(c3ccc(CN(C)C)cc3OC)(N3C[C@H](O)C[C@H]3c3ncco3)c3cc(C#N)ccc32)cc1 (stereo partly drawn) [Example 172, 5-Cyano-3-(4-dimethylaminomethyl-2-methoxyphenyl)-3-((2S,4R)-4-hydroxy-2-oxazol-2-yl-pyrrolidin-1-yl)-1-(4-methoxybenzenesulfonyl)-1,3-dihydroindol-2-one] showed a Ki of 10 to 100 nM. Molecule COc1ccc(S(=O)(=O)N2C(=O)C(c3cc(CN4CCN(C)CC4)ccc3F)(N3CCC[C@H]3c3ncco3)c3cc(Cl)ccc32)cc1 (stereo partly drawn) [Example 173, 5-Chloro-3-[2-fluoro-5-(4-methylpiperazin-1-ylmethyl)phenyl]-1-(4-methoxybenzenesulfonyl)-3-((S)-2-oxazol-2-yl-pyrrolidin-1-yl)-1,3-dihydroindol-2-one] has a Ki of 10 to 100 nM. In the case of COc1ccc(S(=O)(=O)N2C(=O)C(c3cc(CN(C)C)ccc3F)(N3CCC[C@H]3c3ncco3)c3cc(Cl)ccc32)cc1 (stereo partly drawn) [Example 174, 5-Chloro-3-(5-dimethylaminomethyl-2-fluorophenyl)-1-(4-methoxybenzenesulfonyl)-3-((S)-2-oxazol-2-yl-pyrrolidin-1-yl)-1,3-dihydroindol-2-one], the Ki is reported as 10 to 100 nM. COc1ccc(S(=O)(=O)N2C(=O)C(c3cc(CNC(C)C)ccc3F)(N3CCC[C@H]3c3ncco3)c3cc(Cl)ccc32)cc1 (stereo partly drawn) [Example 175, 5-Chloro-3-[2-fluoro-5-(isopropylaminomethyl)phenyl]-1-(4-methoxybenzenesulfonyl)-3-((S)-2-oxazol-2-yl-pyrrolidin-1-yl)-1,3-dihydroindol-2-one] showed a Ki of 10 to 100 nM. In the case of CCNCc1ccc(F)c(C2(N3CCC[C@H]3c3ncco3)C(=O)N(S(=O)(=O)c3ccc(OC)cc3)c3ccc(Cl)cc32)c1 (stereo partly drawn) [Example 176, 5-Chloro-3-(5-ethylaminomethyl-2-fluorophenyl)-1-(4-methoxybenzenesulfonyl)-3-((S)-2-oxazol-2-yl-pyrrolidin-1-yl)-1,3-dihydroindol-2-one], the Ki is reported as 10 to 100 nM. For CCCNCc1ccc(OC)c(C2(N3C[C@H](O)C[C@H]3c3ncco3)C(=O)N(S(=O)(=O)c3ccc(OC)cc3)c3ccc(C#N)cc32)c1 (stereo partly drawn) [Example 177, 5-Cyano-3-((2S,4R)-4-hydroxy-2-oxazol-2-yl-pyrrolidin-1-yl)-1-(4-methoxybenzenesulfonyl)-3-(2-methoxy-5-propylaminomethylphenyl)-1,3-dihydroindol-2-one], the Ki was < 10 nM. COc1ccc(S(=O)(=O)N2C(=O)C(c3ccc(CN4CCN(C)CC4)cc3OC)(N3C[C@H](O)C[C@H]3c3ncco3)c3cc(C#N)ccc32)cc1 (stereo partly drawn) [Example 178, 5-Cyano-3-((2S,4R)-4-hydroxy-2-oxazol-2-yl-pyrrolidin-1-yl)-1-(4-methoxybenzenesulfonyl)-3-[2-methoxy-4-(4-methylpiperazin-1-ylmethyl)phenyl]-1,3-dihydroindol-2-one] was tested, and the Ki was < 10 nM. CCN1CCN(Cc2ccc(C3(N4C[C@H](O)C[C@H]4c4ncco4)C(=O)N(S(=O)(=O)c4ccc(OC)cc4)c4ccc(C#N)cc43)c(OC)c2)CC1 (stereo partly drawn) [Example 179, 5-Cyano-3-[4-(4-ethylpiperazin-1-ylmethyl)-2-methoxyphenyl]-3-((2S,4R)-4-hydroxy-2-oxazol-2-yl-pyrrolidin-1-yl)-1-(4-methoxybenzenesulfonyl)-1,3-dihydroindol-2-one] was tested, and the Ki was < 10 nM. For COc1cc(CN2CCN(C)CC2)ccc1C1(N2C[C@H](O)C[C@H]2c2ncco2)C(=O)N(S(=O)(=O)c2ccc(C#N)cc2)c2ccc(Cl)cc21 (stereo partly drawn) [Example 180, 5-Chloro-3-((2S,4R)-4-hydroxy-2-oxazol-2-yl-pyrrolidin-1-yl)-3-[2-methoxy-4-(4-methylpiperazin-1-ylmethyl)phenyl]-1-(4-cyanobenzenesulfonyl)-1,3-dihydroindol-2-one], the Ki was < 10 nM. In the case of CCN1CCN(Cc2ccc(C3(N4C[C@H](O)C[C@H]4c4ncco4)C(=O)N(S(=O)(=O)c4ccc(C#N)cc4)c4ccc(Cl)cc43)c(OC)c2)CC1 (stereo partly drawn) [Example 181, 5-Chloro-3-[4-(4-ethylpiperazin-1-ylmethyl)-2-methoxyphenyl]-3-((2S,4R)-4-hydroxy-2-oxazol-2-yl-pyrrolidin-1-yl)-1-(4-cyanobenzenesulfonyl)-1,3-dihydroindol-2-one], the Ki is reported as < 10 nM. With COc1cc(CN(C)C)ccc1C1(N2C[C@H](O)C[C@H]2c2ncco2)C(=O)N(S(=O)(=O)c2ccc(C#N)cc2)c2ccc(Cl)cc21 (stereo partly drawn) [Example 182, 5-Chloro-3-(4-dimethylaminomethyl-2-methoxyphenyl)-3-((2S,4R)-4-hydroxy-2-oxazol-2-yl-pyrrolidin-1-yl)-1-(4-cyanobenzenesulfonyl)-1,3-dihydroindol-2-one] the Ki was 10 to 100 nM. In the case of COc1cc(CN2CCCC2)ccc1C1(N2C[C@H](O)C[C@H]2c2ncco2)C(=O)N(S(=O)(=O)c2ccc(C#N)cc2)c2ccc(Cl)cc21 (stereo partly drawn) [Example 183, 5-Chloro-3-((2S,4R)-4-hydroxy-2-oxazol-2-yl-pyrrolidin-1-yl)-3-(2-methoxy-4-(pyrrolidin-1-ylmethyl)phenyl)-1-(4-cyanobenzenesulfonyl)-1,3-dihydroindol-2-one], the Ki is reported as 10 to 100 nM. For COc1ccc(S(=O)(=O)N2C(=O)C(c3cc(CN4CCN(C)CC4)cc4c3OCO4)(N3CCC[C@H]3c3ncco3)c3cc(Cl)ccc32)cc1 (stereo partly drawn) [Example 184, 5-Chloro-1-(4-methoxybenzenesulfonyl)-3-[6-(4-methylpiperazin-1-ylmethyl)benzo[1,3]dioxol-4-yl]-3-((S)-2-oxazol-2-yl-pyrrolidin-1-yl)-1,3-dihydroindol-2-one], the Ki was < 10 nM. Molecule CNCc1cc2c(c(C3(N4CCC[C@H]4c4ncco4)C(=O)N(S(=O)(=O)c4ccc(OC)cc4)c4ccc(Cl)cc43)c1)OCO2 (stereo partly drawn) [Example 185, 5-Chloro-1-(4-methoxybenzenesulfonyl)-3-(6-methylaminomethylbenzo[1,3]dioxol-4-yl)-3-((S)-2-oxazol-2-yl-pyrrolidin-1-yl)-1,3-dihydroindol-2-one] has a Ki of 10 to 100 nM. With COc1ccc(S(=O)(=O)N2C(=O)C(c3cc(CN(C)C)cc4c3OCO4)(N3CCC[C@H]3c3ncco3)c3cc(Cl)ccc32)cc1 (stereo partly drawn) [Example 186, 5-Chloro-3-(6-dimethylaminomethylbenzo[1,3]dioxol-4-yl)-1-(4-methoxybenzenesulfonyl)-3-((S)-2-oxazol-2-yl-pyrrolidin-1-yl)-1,3-dihydroindol-2-one] the Ki was 10 to 100 nM. For COc1ccc(S(=O)(=O)N2C(=O)C(c3cc(CNC(C)C)cc4c3OCO4)(N3CCC[C@H]3c3ncco3)c3cc(Cl)ccc32)cc1 (stereo partly drawn) [Example 187, 5-Chloro-3-[6-(isopropylaminomethyl)benzo[1,3]dioxol-4-yl]-1-(4-methoxybenzenesulfonyl)-3-((S)-2-oxazol-2-yl-pyrrolidin-1-yl)-1,3-dihydroindol-2-one], the Ki was < 10 nM. For CCNCc1cc2c(c(C3(N4CCC[C@H]4c4ncco4)C(=O)N(S(=O)(=O)c4ccc(OC)cc4)c4ccc(Cl)cc43)c1)OCO2 (stereo partly drawn) [Example 188, 5-Chloro-3-(6-ethylaminomethylbenzo[1,3]dioxol-4-yl)-1-(4-methoxybenzenesulfonyl)-3-((S)-2-oxazol-2-yl-pyrrolidin-1-yl)-1,3-dihydroindol-2-one], the Ki was < 10 nM. CCNCc1ccc(C2(N3C[C@H](O)C[C@H]3c3ncco3)C(=O)N(S(=O)(=O)c3ccc(C#N)cc3)c3ccc(Cl)cc32)c(OC)c1 (stereo partly drawn) [Example 189, 5-Chloro-3-(4-ethylaminomethyl-2-methoxyphenyl)-3-((2S,4R)-4-hydroxy-2-oxazol-2-yl-pyrrolidin-1-yl)-1-(4-cyanobenzenesulfonyl)-1,3-dihydroindol-2 one] showed a Ki of 10 to 100 nM. With CNCc1ccc(C2(N3C[C@H](O)C[C@H]3c3ncco3)C(=O)N(S(=O)(=O)c3ccc(C#N)cc3)c3ccc(Cl)cc32)c(OC)c1 (stereo partly drawn) [Example 190, 5-Chloro-3-((2S,4R)-4-hydroxy-2-oxazol-2-yl-pyrrolidin-1-yl)-3-(2-methoxy-4-methylaminomethylphenyl)-1-(4-cyanobenzenesulfonyl)-1,3-dihydroindol-2 one] the Ki was 10 to 100 nM. COc1ccc(S(=O)(=O)N2C(=O)C(c3cc(CN4CCC(O)CC4)ccc3OC)(N3CCC[C@H]3c3ncco3)c3cc(C#N)ccc32)cc1 (stereo partly drawn) [Example 191, 5-Cyano-3-[5-(4-hydroxypiperidin-1-ylmethyl)-2-methoxyphenyl]-1-(4-methoxybenzenesulfonyl)-3-((S)-2-oxazol-2-yl-pyrrolidin-1-yl)-1,3-dihydroindol-2-one] was tested, and the Ki was < 10 nM.

Reference: patent US8044079B2, “Substituted oxindole derivatives, medicaments containing said derivatives and use thereof” (Abbott GmbH & Co. KG, priority 2005, dated 2011)
